In patent US11071731B2, “Allosteric modulators of the mu opioid receptor” (Chiromics, LLC, priority 2017, dated 2021):

Experiments:
[1] = target: T1, mu opioid receptor (MOR) (Homo sapiens, UniProt P35372); assay: Hit Hunter cAMP signaling assay (adenylyl cyclase inhibition), PAM mode with EC20 endomorphin-1; format: cell-based; details: for EC50: adenylyl cyclase inhibition, read-out: cAMP EC50
[2] = target: T1, mu opioid receptor (MOR); assay: PathHunter β-arrestin recruitment assay, PAM mode with EC20 endomorphin-1; format: cell-based; details: for EC50: β-arrestin recruitment, read-out: β-arr. EC50
Protocol: The effects of MOR PAMs and MOR SAMs on receptor activity were assayed using the PathHunter enzyme complementation assay technology (DiscoveRx, CA). A description of the technology employed is as follows.
Beta-Arrestin Pathway: The PathHunter β-arrestin assay monitors the activation of a GPCR in a homogenous, non-imaging assay format using a technology developed by DiscoveRx called Enzyme Fragment Complementation (EFC) with beta-galactosidase (β-Gal) as the functional reporter. […] EA is fused to β-Arrestin and ED is fused to the GPCR of interest. When the GPCR is activated and β-arrestin is recruited to the receptor, ED and EA complementation occurs, restoring β-gal activity, which is measured using chemiluminescent PathHunter Detection Reagents.
In this manner an EC50 for each test compound, and percent maximal response for each test compound, were determined for both the β-arrestin and cAMP pathways. Though the pharmacological effects of a given signal bias can be hypothesized (Raehal et al. (2011) Pharmacol. Rev. 63:1001-1019), it is not possible to know with certainty which bias ratio will be most advantageous in a clinical setting. […] Kenakin 2015a, supra. The information associated with the compounds detailed herein is the first large data set available for the prediction of ligand bias for an MOR PAM.

[3] = maximal response for adenylyl cyclase inhibition
[4] = maximal response for β-arrestin recruitment

T1 sequence (P35372 whole entry): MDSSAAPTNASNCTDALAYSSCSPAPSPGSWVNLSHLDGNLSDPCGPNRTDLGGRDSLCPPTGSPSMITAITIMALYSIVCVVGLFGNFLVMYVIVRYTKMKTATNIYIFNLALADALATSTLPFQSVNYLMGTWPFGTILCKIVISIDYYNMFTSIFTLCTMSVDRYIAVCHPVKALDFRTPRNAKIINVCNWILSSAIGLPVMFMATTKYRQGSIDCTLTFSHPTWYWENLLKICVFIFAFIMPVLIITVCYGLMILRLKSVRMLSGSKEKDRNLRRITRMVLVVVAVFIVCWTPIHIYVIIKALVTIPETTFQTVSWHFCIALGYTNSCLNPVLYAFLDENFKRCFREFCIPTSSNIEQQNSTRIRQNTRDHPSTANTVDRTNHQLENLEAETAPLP

Structure (SMILES) | EC50 [1] | cAMP Max. Resp. [1, 3] | β-arr Max. Resp. [2, 4] | EC50 [2] | EC50 ([1]; Table 3) | cAMP Max Resp. ([1]; maximal response for adenylyl cyclase inhibition, Table 3) | β-arr. Max Resp. ([2]; maximal response for β-arrestin recruitment, Table 3) | EC50 ([2]; Table 3)
[O-][S+]1CCN(c2nc(Cl)ncc2F)C(c2cc(F)cc(C(F)(F)F)c2)C1 (mixture of isomers) [Compound 302] | > 2100 nM | D (D represents a maximal response of < 40%) | E (E represents a maximal response of 40-60%) | > 2100 nM |  |  |  | 
CC1CCN(S(=O)(=O)c2ccc(Cl)cc2)C1c1ccc(F)c(C(F)(F)F)c1 (mixture of isomers) [compound 100] | > 2100 nM | D (D represents a maximal response of < 40%) | F (F represents a maximal response of > 60%) | < 700 nM | > 25000 nM | 25 | 76 | 522 nM
COc1ccc(C2N(S(=O)(=O)c3ccc(Cl)cc3)CCC2(F)F)cc1Br (racemic) [Compound 85] | > 2100 nM | D (D represents a maximal response of < 40%) | D (D represents a maximal response of < 40%) | > 2100 nM |  |  |  | 
O=S(=O)(c1ccc(Cl)cc1)N1CCOCC1c1ccc(F)c(Br)c1 (racemic) [Compound 185] | > 2100 nM | D (D represents a maximal response of < 40%) | F (F represents a maximal response of > 60%) | 700 to 2100 nM |  |  |  | 
Fc1cnc(Cl)nc1N1CCOCC1c1cccc(C(F)(F)F)n1 (racemic) [Compound 186] | > 2100 nM | D (D represents a maximal response of < 40%) | E (E represents a maximal response of 40-60%) | > 2100 nM |  |  |  | 
COc1ccc(C2COCCN2c2nc(Cl)ncc2F)cc1Br (racemic) [Compound 187] | > 2100 nM | E (E represents a maximal response of 40-60%) | F (F represents a maximal response of > 60%) | > 2100 nM |  |  |  | 
Fc1cnc(Cl)nc1N1CCOCC1c1cccc(C(F)(F)F)c1 (racemic) [Compound 188] | 700 to 2100 nM | E (E represents a maximal response of 40-60%) | F (F represents a maximal response of > 60%) | > 2100 nM |  |  |  | 
Fc1ccc(C2COCCN2c2nc(Cl)ncc2F)cc1Cl (racemic) [Compound 189] | 700 to 2100 nM | F (F represents a maximal response of > 60%) | F (F represents a maximal response of > 60%) | 700 to 2100 nM |  |  |  | 
Fc1cc(C2COCCN2c2nc(Cl)ncc2F)cc(C(F)(F)F)c1 (racemic) [Compound 190] | < 700 nM | F (F represents a maximal response of > 60%) | F (F represents a maximal response of > 60%) | 700 to 2100 nM |  |  |  | 
Fc1ccc(Cl)cc1CN1CCOCC1c1cccc(C(F)(F)F)n1 (racemic) [Compound 191] | 700 to 2100 nM | E (E represents a maximal response of 40-60%) | F (F represents a maximal response of > 60%) | 700 to 2100 nM |  |  |  | 
COc1ccc(C2COCCN2Cc2cc(Cl)ccc2F)cc1Br (racemic) [Compound 192] | > 2100 nM | D (D represents a maximal response of < 40%) | F (F represents a maximal response of > 60%) | > 2100 nM |  |  |  | 
Fc1ccc(Cl)cc1CN1CCOCC1c1cccc(C(F)(F)F)c1 (racemic) [Compound 193] | > 2100 nM | F (F represents a maximal response of > 60%) | F (F represents a maximal response of > 60%) | 700 to 2100 nM |  |  |  | 
Fc1ccc(C2COCCN2Cc2cc(Cl)ccc2F)cc1Cl (racemic) [Compound 194] | 700 to 2100 nM | D (D represents a maximal response of < 40%) | F (F represents a maximal response of > 60%) | 700 to 2100 nM |  |  |  | 
Fc1cc(C2COCCN2Cc2cc(Cl)ccc2F)cc(C(F)(F)F)c1 (racemic) [Compound 195] | > 2100 nM | D (D represents a maximal response of < 40%) | F (F represents a maximal response of > 60%) | 700 to 2100 nM |  |  |  | 
COc1ccc(C2COCCN2S(=O)(=O)c2ccc(Cl)cc2)cc1Br (racemic) [Compound 222] | 700 to 2100 nM | D (D represents a maximal response of < 40%) | F (F represents a maximal response of > 60%) | > 2100 nM |  |  |  | 
CN1CCN(c2nc(Cl)ncc2F)C(c2cccc(C(F)(F)F)c2)C1 (racemic) [Compound 282] | 700 to 2100 nM | D (D represents a maximal response of < 40%) | F (F represents a maximal response of > 60%) | 700 to 2100 nM |  |  |  | 
Fc1cc(C2CSCCN2c2nc(Cl)ncc2F)cc(C(F)(F)F)c1 (racemic) [Compound 301] | < 700 nM | E (E represents a maximal response of 40-60%) | F (F represents a maximal response of > 60%) | 700 to 2100 nM |  |  |  | 
O=S1(=O)CCN(c2nc(Cl)ncc2F)C(c2cc(F)cc(C(F)(F)F)c2)C1 (racemic) [Compound 303] | > 2100 nM | E (E represents a maximal response of 40-60%) | D (D represents a maximal response of < 40%) | > 2100 nM |  |  |  | 
CN1CCN(c2nc(Cl)ncc2F)C(c2cc(F)cc(C(F)(F)F)c2)C1 (racemic) [Compound 305] | 700 to 2100 nM | F (F represents a maximal response of > 60%) | F (F represents a maximal response of > 60%) | 700 to 2100 nM |  |  |  | 
CN(C)CC(=O)N1CCN(c2nc(Cl)ncc2F)C(c2cc(F)cc(C(F)(F)F)c2)C1 (racemic) [Compound 306] | > 2100 nM | F (F represents a maximal response of > 60%) | D (D represents a maximal response of < 40%) | > 2100 nM |  |  |  | 
CC(C)(O)C(=O)N1CCN(c2nc(Cl)ncc2F)C(c2cc(F)cc(C(F)(F)F)c2)C1 (racemic) [Compound 307] | > 2100 nM | F (F represents a maximal response of > 60%) | D (D represents a maximal response of < 40%) | > 2100 nM |  |  |  | 
CC(=O)N1CCN(c2nc(Cl)ncc2F)C(c2cc(F)cc(C(F)(F)F)c2)C1 (racemic) [Compound 308] | > 2100 nM | F (F represents a maximal response of > 60%) | E (E represents a maximal response of 40-60%) | > 2100 nM |  |  |  | 
CS(=O)(=O)N1CCN(c2nc(Cl)ncc2F)C(c2cc(F)cc(C(F)(F)F)c2)C1 (racemic) [Compound 309] | > 2100 nM | D (D represents a maximal response of < 40%) | E (E represents a maximal response of 40-60%) | > 2100 nM |  |  |  | 
O=S(=O)(c1ccc(Cl)cc1)N1CCCCC1c1cccc(OC(F)(F)F)n1 (racemic) [compound 48] | > 2100 nM | E (E represents a maximal response of 40-60%) | F (F represents a maximal response of > 60%) | > 2100 nM |  |  |  | 
N#Cc1ccc(C2CCCCN2S(=O)(=O)c2ccc(Cl)cc2)cc1C(F)(F)F (racemic) [compound 49] | > 2100 nM | F (F represents a maximal response of > 60%) | F (F represents a maximal response of > 60%) | > 2100 nM |  |  |  | 
O=S(=O)(c1ccc(Cl)cc1)N1CCCCC1c1cc(F)cc(C(F)(F)F)c1 (racemic) [compound 50] | 700 to 2100 nM | D (D represents a maximal response of < 40%) | F (F represents a maximal response of > 60%) | > 2100 nM |  |  |  | 
